Entries after “also recorded” stand apart in the source; their conditions may differ.

The text below walks through data of patent publication US20240358727A1, “MICROSCALE THERMOPHORESIS TO EVALUATE CHANNEL LIPID INTERACTIONS AND METHODS OF TREATING NAV CHANNELS RELATED DISEASES” (Northeastern University, priority 2023, published 2024).

The target in the assay is T1, Nav1.5-R1644C (Homo sapiens, UniProt Q14524, R1644C).
T1 construct: expressed in transfected cells; host or cells: HEK293T
The experiment in a line: Whole-cell patch-clamp ILATE of Nav1.5-R1644C in HEK293T cells with CRY2-5POCRL. Format: cell-based. As to the method: This is opposed when by 200 μM diC8-PIP2 in the pipette. Comparisons are Students t-test, *** P<0.01, ****P0.001 for 4-6 cells per group.
Results. Our studies were designed to evaluate PIP2-regulation for Nav1.5 channelopathies from multiple perspectives. Given that there is a lack of structural data to identify where, or how many PIP2 molecules bind to Nav1.5, we performed a docking simulation to identify putative PIP2 binding sites in the open, rat and human Nav1.5 cryoEM structures (PDB: 6UZ3 and 7DTC) (56-58). We observed four potential PIP2 binding sites at the boundary between the inner leaflet of the membrane and the cytoplasm with one at the interface between each voltage sensor and the channel body. In each case, we noted electrostatic and hydrogen bond interactions between the headgroup of PIP2 and multiple disease associated residues. Among these, we elected to perform functional studies on Nav1.5-R1644C, an LQT3 mutant located between the S4 and S5 transmembrane segments of DIV. We expressed wild type Nav1.5 or Nav1.5-R1644C with Nav1β, CIBN-CAAX and CRY2-5POCRL in HEK293T cells and studied ILATE with and without optogenetic dephosphorylation of PIP2. In wild-type Nav1.5, ILATE was 0.25±0.1% of the peak (n=8) whereas in […], ILATE was 1.2±0.2% of peak (n=8, P<0.01, unpaired t-test comparison to WT). Dephosphorylation of PIP2 elevated ILATE in both channels to ˜4% of the peak but did so more rapidly for Nav1.5-R1644C. Thus, WT Nav1.5 ILATE plateaued after 180±15 s of optogenetic dephosphorylation compared to 86±22 s in Nav1.5-R1644C channels (n=8 for both experiments). […] Next, we used the Monolith Nanotemper system to establish a microscale thermophoresis (MST) approach to measure the binding affinity of PIP2 for Nav1.5 channels. MST measures the mobility of the GFP-tagged protein in response to an IR-laser pulse. Ligand binding alters the motion of the target protein, allowing the user to generate a binding curve and extracting a binding constant (Kd) (FIG. 6A). First, we studied GFP-Nav1.5 expressed in HEK293T cells along with Navβ1.
Next, aimed to test the hypothesis that the relationship of PIP2 with the channel in certain disease-associated variants is altered. We employed a variant of Nav1.5 identified in patients with Long QT Syndrome Type 3, Arg1644→C and assessed it sensitivity to the widely used 5P-OCRL construct. We observed a right shift in the G-V curve and an increase in the ILATE over WT conditions as well as a further increase following blue light induction of PIP2 dephosphorylation. We then used the patch pipette to enrich cells expressing these channels with diC8PI(4,5)P2. We observed that the enhanced ILATE observed under control conditions is mitigated by the inclusion of diC8PIP2 in patch pipette while the shift in the G-V is not rescued by the inclusion of diC8PI(4,5)P2 in the pipette.

For the molecule `CCCCCCCC(=O)OC[C@H](COP(=O)(O)O[C@@H]1[C@H](O)[C@H](O)[C@@H](OP(=O)(O)O)[C@H](OP(=O)(O)O)[C@H]1O)OC(=O)CCCCCCC` [diC8-PIP2], under “200 μM diC8-PIP2 in pipette”, the “effect on elevated baseline ILATE” value was “ameliorated; also recorded: abolishing; also recorded: decreased”, the “effect on elevation in ILATE following optogenetic stimulation of CRY2-5POCRL” value is “opposed” and the “effect on more rapid rise of ILATE on PIP2 dephosphorylation” value is reported as “opposed”. Also, the “effect on elevated baseline ILATE” value (200 μM diC8-PIP2 in pipette, listed as diC8PIP2) was “mitigated”. The ILATE (200 μM diC8-PIP2 in pipette, without diC8-PIP2 1.2±0.2) is recorded as 0.46±0.1 % of peak INa. Besides, the “effect on right shift in the G-V” value (diC8PI(4,5)P2 in pipette) is “not rescued”.
